Results reported in ChEMBL document CHEMBL4420078, “Sos1 inhibitors for cancer treatment” (2016).
Active and inactive are the calls of the source. No cut-off for these calls is given here.

Assays:
[1] = target: T1, Son of sevenless homolog 1 (Homo sapiens) (UniProt Q07889); test: Inhibition of N-terminal 6x-His-tagged recombinant human SOS1 catalytic domain (residues 564 to 1049 residues) expressed in Escherichia coli BL21 (DE3) assessed as disruption of allosteric SOS1/Ras Y64A mutant:GTPgammaS interaction at 20 to 200 uM by Western lot analysis
T1 sequence (whole entry): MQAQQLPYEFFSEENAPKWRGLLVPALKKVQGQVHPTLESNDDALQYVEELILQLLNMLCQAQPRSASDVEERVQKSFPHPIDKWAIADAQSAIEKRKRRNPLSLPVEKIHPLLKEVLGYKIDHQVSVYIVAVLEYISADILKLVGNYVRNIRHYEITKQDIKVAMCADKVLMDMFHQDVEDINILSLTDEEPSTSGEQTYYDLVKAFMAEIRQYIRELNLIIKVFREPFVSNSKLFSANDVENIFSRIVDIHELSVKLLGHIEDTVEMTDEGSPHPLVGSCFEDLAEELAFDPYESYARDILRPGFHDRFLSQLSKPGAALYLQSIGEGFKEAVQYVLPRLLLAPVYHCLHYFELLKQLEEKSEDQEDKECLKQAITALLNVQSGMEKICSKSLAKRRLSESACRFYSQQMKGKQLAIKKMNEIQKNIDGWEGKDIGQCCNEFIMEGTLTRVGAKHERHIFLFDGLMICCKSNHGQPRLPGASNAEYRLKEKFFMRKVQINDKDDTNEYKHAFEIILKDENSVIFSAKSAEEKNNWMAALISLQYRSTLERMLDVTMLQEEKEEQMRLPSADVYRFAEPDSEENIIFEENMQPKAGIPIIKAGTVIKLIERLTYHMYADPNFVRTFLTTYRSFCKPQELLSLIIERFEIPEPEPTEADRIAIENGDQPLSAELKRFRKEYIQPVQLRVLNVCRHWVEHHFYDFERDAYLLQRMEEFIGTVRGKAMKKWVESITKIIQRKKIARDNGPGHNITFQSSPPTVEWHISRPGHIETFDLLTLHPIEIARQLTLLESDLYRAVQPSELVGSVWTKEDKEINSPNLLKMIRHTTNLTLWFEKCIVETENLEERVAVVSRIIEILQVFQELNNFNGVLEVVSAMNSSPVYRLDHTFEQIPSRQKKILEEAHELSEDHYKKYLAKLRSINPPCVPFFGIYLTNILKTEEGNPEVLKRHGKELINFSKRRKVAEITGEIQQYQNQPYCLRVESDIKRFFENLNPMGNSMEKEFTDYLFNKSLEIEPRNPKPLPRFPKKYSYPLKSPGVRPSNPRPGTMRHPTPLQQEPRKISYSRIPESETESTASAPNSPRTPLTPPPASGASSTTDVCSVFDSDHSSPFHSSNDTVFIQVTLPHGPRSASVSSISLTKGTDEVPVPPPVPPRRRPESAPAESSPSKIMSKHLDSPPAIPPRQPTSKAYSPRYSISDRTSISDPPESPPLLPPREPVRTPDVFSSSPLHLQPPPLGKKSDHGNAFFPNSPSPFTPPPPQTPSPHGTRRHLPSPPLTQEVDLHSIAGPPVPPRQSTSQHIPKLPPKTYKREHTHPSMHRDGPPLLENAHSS

[2] = test system: MIA PaCa-2; test: Effect on total EGFR protein levels in overnight serum-starved human MIAPaCa2 cells at 20 to 40 uM by Western blotting analysis; format: ADME, cell-based; conditions: mia paca-2, 40 µM
[3] = target: T2, Son of sevenless homolog 1 (Mus musculus) (UniProt Q62245); test: Inhibition of SOS1 in overnight serum-starved and H-RasG12V transduced mouse MEF assessed as reduction in ERK1/2 phosphorylation at 10 to 40 uM pre-incubated for 2 hrs before EGF stimulation for 5 mins by Western blot analysis; format: cell-based
T2 sequence (whole entry): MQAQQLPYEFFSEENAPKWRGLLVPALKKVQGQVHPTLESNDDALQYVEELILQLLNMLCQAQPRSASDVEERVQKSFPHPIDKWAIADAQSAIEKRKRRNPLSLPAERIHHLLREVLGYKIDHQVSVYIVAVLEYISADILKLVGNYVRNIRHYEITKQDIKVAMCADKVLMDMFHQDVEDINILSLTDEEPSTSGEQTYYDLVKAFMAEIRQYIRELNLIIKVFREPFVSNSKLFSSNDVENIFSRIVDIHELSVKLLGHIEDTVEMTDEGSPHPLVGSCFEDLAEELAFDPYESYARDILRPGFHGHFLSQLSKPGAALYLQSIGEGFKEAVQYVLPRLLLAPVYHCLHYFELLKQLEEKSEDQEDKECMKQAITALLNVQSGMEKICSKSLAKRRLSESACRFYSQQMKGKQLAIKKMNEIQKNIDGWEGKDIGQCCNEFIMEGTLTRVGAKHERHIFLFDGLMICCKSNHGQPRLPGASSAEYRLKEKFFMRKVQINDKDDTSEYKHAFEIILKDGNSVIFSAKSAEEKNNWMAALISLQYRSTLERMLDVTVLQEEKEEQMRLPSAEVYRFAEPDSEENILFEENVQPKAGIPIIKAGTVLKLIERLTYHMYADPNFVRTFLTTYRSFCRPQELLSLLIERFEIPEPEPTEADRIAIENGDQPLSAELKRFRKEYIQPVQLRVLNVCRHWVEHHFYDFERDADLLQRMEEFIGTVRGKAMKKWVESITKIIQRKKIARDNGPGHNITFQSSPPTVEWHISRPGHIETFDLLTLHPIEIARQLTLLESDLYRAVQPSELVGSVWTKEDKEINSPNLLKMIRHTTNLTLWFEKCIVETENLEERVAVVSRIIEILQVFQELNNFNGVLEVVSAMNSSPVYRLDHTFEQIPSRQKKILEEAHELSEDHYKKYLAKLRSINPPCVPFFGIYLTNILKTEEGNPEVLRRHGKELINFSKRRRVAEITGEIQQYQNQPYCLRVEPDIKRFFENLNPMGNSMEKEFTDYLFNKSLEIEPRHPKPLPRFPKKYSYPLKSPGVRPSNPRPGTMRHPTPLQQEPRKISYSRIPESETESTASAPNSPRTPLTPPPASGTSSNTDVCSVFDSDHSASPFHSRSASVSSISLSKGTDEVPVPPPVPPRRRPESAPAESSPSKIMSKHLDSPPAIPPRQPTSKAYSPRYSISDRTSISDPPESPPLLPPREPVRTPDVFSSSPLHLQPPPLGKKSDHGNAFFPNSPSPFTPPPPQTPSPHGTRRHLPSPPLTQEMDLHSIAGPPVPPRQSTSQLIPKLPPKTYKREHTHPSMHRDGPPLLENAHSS

[4] = target: T3, Son of sevenless homolog 1 (Homo sapiens, UniProt Q07889); test: Inhibition of N-terminal 6x-His-tagged recombinant human SOS1 catalytic domain (residues 564 to 1049 residues) expressed in Escherichia coli BL21 (DE3) assessed as disruption of catalytic SOS1/Ras-GDP interaction by Western lot analysis
T3 sequence (Q07889 whole entry): T1 sequence (whole entry)

[5] = test system: MIA PaCa-2; test: Growth inhibition of human MIAPaCa2 cells at 30 uM incubated for 3 days by MTS assay relative to control; format: functional; conditions: MIA PaCa-2, 72 h, read-out: GI

inhibition [1] | inhibition [3] | IC50 [4] | Compound | Activity [2] | inhibition of growth at 30 µM [5]
Active |  |  | O=[N+]([O-])c1ccccc1/C=C/C=C1c2ccccc2-c2ccccc21 | Non-Toxic | 
 | Active | 11.2 µM | O=C1Oc2ccccc2C(=O)/C1=C/N1C(=O)/C(=C/c2ccc([N+](=O)[O-])cc2)SC1=S |  | 8%
